We go through 5 compounds from ChEMBL document CHEMBL1201862, “PubChem BioAssay data set” (2004).

Experiment [1] has as its target T1, Microphthalmia-associated transcription factor (Homo sapiens, UniProt O75030).
T1 sequence (O75030 whole entry): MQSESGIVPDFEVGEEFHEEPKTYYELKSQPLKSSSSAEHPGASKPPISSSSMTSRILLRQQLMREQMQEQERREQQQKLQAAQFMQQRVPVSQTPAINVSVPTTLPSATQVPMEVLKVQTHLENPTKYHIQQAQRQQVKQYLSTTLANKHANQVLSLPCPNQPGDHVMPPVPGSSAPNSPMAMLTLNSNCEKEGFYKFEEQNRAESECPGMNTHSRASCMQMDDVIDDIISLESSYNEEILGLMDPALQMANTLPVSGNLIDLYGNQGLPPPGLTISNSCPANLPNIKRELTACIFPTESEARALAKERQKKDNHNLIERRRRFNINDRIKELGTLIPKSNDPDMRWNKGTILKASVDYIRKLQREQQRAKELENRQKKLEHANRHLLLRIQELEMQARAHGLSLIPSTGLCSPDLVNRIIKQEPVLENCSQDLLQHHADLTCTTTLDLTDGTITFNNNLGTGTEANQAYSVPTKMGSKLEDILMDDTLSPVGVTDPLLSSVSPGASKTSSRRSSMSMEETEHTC
Put plainly: reducers of TRPM1 reporter luminescence, concentration series – cell-based, SK-MEL-5, cherry-picked, set 3, MITF inhibitor project, dose response (AID 493073).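 Further: SK-MEL-5 melanoma cells with luciferase driven by the MITF target TRPM1 promoter.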 Type of experiment: functional.

The nature of experiment [2]: reduction of Shn3 3'UTR-driven luciferase in osteoblasts – cell-based, Clone20 osteoblasts, firefly luciferase, cherry-picked, dose response (AID 624132).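 Further: firefly luciferase luminescence from reporter carrying the Shn3 3'UTR in osteoblasts.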 Type of experiment: functional.
Experiment [3] is described as follows: toxicity toward HepG2 liver cells – cell-based, plate reader, cherry-pick, antagonist series, cytotoxicity control, dose response (AID 743416). Type of experiment: functional.
Experiment [4] in a line: A549 cell cytotoxicity, dose response, cytotoxicity control, plate reader, cherry-pick, antagonist series (AID 743412). Type of experiment: functional, cell-based.
The nature of experiment [5]: loss of viability in HepG2 cells – cell-based, CellTiter-Glo, cherry-picked, cytotoxicity control for Shn3 inhibitor project, dose response (AID 624134). Format: functional. For orientation: ATP-based viability assays read luminescence as a measure of living cells.
A short description of experiment [6]: blockade of melanocortin 4 receptor signaling – cell-based, plate reader, cherry pick, counter-screen for LGR2 antagonist project, dose response (AID 743444).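 Further: transfected HEK 293 cells stimulated with alpha-MSH peptide; potency of inhibitors of the alpha-MSH evoked signal.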 Type of experiment: functional. For orientation: A counterscreen serves to expose hits that act by an unwanted route or on another target.
A short description of experiment [7]: viability loss in HEK293 cells – cell-based, plate reader, cherry-picked samples, cytotoxicity control, dose response (AID 743446). Format: functional.
In experiment [8] the target is T2, Heat shock factor protein 1 (Mus musculus, UniProt P38532).
T2 sequence (P38532 whole entry): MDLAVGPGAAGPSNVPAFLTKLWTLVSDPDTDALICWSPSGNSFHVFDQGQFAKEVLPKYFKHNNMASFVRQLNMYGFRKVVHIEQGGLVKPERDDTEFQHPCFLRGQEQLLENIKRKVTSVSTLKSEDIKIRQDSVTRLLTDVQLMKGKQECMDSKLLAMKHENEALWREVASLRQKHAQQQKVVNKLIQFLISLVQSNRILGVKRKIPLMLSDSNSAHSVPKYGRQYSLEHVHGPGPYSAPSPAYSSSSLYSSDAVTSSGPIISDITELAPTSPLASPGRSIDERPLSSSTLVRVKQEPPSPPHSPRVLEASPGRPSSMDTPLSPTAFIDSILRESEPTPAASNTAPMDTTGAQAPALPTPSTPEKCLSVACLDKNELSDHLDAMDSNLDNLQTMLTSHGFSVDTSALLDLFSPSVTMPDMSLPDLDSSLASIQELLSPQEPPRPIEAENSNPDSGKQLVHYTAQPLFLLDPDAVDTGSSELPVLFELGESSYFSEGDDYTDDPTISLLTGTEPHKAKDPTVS
The experiment can be described thus: decrease of HSF1-responsive luciferase luminescence – cell-based, NIH3T3, dose retest, confirmation (AID 2382).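 Further: NIH3T3 fibroblasts with HSF1-driven luciferase reporter stressed by proteasome inhibitor MG132; luminescence from HSF1-driven luciferase expression after 8 hours of MG132 stress.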 Type of experiment: functional.

Experiment [9] concerns the target T3, Interleukin-8 (Homo sapiens, UniProt P10145). Put plainly: Dose Response confirmation of uHTS small molecule hits for cystic fibrosis induced NFkb Inhibitors in a TNFa-induced IL8 counterscreen. Type of experiment: functional. Conditions: read-out: IC50_Mean.
A short description of experiment [10]: blockers of bursicon-stimulated LGR2 cAMP reporter – cell-based, HEK293, CRE-luciferase reporter, cherry pick, set 2, dose response (AID 743343).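 Further: transfected cells were stimulated with diluted bursicon conditioned medium after compound addition.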 Format: functional.
The target in the next experiment is Paired box protein Pax-8 (Homo sapiens, UniProt Q06710). The experiment can be described thus: PAX8 transcriptional activity inhibition in RMG-I – RMG-I cells, luciferase, cherry-pick, dose response (AID 687027).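 Further: luciferase reporter driven by Pax8 target thyroperoxidase promoter measured by SteadyGlo luminescence.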 Type of experiment: functional, cell-based.
Chain of Paired box protein Pax-8 (Q06710 whole entry): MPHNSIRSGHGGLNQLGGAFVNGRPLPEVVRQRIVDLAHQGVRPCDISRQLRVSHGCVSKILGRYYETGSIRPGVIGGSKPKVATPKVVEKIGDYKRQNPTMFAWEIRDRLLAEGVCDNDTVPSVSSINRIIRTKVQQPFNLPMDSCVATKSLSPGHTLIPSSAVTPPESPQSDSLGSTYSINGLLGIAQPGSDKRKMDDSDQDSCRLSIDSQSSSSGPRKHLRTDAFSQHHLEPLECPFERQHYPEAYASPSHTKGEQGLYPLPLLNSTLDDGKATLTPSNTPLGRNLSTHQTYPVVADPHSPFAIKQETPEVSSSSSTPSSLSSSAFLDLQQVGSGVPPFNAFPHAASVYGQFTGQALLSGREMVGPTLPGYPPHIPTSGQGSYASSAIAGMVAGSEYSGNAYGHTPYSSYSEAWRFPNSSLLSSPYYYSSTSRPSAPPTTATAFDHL
Experiment [11] is described as follows: non-specific 3'UTR reporter inhibition in Clone20-Shn3RL – cell-based, Renilla luciferase, cherry-picked, counter-screen for Shn3 inhibitor project, dose response (AID 624133). Format: functional.
Experiment [12] addresses T3, Interleukin-8. The experiment can be described thus: Dose Response confirmation of uHTS small molecule hits for cystic fibrosis induced NFkb Inhibitors in a PAF-induced IL8 counterscreen. Conditions: read-out: IC50_Mean. Format: functional.
The target in experiment [13] is Serine/threonine-protein kinase TAO1 (Homo sapiens, UniProt Q7L7X3). Type of experiment: functional.
Chain of Serine/threonine-protein kinase TAO1 (Q7L7X3 whole entry): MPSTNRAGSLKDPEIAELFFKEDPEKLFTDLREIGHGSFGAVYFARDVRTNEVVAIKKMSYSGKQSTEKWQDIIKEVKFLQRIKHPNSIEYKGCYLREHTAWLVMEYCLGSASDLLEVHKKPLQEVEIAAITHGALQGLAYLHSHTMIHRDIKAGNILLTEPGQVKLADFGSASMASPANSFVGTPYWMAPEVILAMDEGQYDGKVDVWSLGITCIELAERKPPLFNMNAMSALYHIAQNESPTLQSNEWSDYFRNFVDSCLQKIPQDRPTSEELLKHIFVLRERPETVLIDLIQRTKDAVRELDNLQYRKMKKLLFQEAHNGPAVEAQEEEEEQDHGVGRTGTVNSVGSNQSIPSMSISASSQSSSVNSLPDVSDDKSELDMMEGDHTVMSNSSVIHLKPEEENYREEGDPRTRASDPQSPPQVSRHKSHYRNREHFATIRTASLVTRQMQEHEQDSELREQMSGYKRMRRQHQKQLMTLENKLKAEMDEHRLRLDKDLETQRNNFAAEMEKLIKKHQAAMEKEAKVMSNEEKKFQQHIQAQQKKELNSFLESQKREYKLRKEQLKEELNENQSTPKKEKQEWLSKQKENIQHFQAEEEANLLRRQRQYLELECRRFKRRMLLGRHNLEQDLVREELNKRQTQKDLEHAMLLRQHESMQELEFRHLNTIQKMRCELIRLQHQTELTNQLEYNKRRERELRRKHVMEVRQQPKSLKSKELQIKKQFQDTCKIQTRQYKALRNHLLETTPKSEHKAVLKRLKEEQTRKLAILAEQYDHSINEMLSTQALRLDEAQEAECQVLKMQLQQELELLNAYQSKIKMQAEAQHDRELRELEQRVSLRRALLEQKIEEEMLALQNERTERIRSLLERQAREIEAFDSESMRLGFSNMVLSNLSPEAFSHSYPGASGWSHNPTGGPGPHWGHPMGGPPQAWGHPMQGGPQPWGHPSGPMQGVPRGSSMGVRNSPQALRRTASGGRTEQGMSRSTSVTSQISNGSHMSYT
Experiment [14] concerns the target Leukocyte tyrosine kinase receptor (Homo sapiens, UniProt P29376). Put plainly: Navigating the Kinome. Panel member name: LTK. Format: functional.
Experiment [15] concerns HEK293. The experiment can be described thus: optical interference in Abeta FP readout, dose response, artefact control for IDE activator project, biochemical, fluorescence polarization (AID 588442). Type of experiment: functional, cell-based. Conditions: Homo sapiens.
The target of experiment [16] is T4, Insulin-degrading enzyme (Homo sapiens, UniProt P14735).
T4 sequence (P14735 whole entry): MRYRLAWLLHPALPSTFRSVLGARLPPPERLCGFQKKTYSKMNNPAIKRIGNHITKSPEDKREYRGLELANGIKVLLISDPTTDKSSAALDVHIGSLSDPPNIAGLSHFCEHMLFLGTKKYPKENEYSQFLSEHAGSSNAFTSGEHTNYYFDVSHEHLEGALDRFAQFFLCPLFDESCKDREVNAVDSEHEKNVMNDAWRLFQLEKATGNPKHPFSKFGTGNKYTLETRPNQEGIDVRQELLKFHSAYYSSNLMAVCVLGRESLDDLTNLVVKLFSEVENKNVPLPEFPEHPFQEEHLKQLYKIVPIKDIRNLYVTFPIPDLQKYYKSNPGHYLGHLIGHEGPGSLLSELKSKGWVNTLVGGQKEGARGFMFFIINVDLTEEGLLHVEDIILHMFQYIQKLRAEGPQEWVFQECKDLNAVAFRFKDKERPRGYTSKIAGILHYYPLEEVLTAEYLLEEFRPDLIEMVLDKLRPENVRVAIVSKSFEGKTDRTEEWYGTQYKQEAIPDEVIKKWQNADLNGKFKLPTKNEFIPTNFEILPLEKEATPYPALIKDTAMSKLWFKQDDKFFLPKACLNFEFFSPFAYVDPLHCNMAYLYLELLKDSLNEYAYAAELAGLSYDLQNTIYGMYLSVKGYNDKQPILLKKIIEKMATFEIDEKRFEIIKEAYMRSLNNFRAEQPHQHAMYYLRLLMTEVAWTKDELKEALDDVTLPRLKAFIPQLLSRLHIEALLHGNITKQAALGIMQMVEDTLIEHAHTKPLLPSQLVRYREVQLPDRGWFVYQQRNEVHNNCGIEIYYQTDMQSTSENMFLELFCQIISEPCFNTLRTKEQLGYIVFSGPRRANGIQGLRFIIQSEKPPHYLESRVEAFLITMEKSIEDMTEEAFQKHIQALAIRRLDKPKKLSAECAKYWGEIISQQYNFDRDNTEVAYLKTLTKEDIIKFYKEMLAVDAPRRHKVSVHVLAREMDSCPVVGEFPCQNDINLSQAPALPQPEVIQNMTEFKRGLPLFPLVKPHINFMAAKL
Put plainly: cellular IDE activation of Abeta substrate cleavage – fluorescence polarization, HEK cells, dose response (AID 588439). Type of experiment: functional, cell-based. For orientation: Polarisation of emitted light reports the rotation of a fluorescent probe.

Experiment [17] concerns the target T4, Insulin-degrading enzyme. Put plainly: recombinant IDE activation, cell-free – biochemical, fluorescence polarization, counter-screen for IDE activator project, dose response (AID 588681).
The subject of experiment [18] is HEK293. Put plainly: membrane integrity loss in HEK cells – cell-based, fluorescence, cytotoxicity control for IDE activator project, dose response (AID 588440).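 Further: cytotoxicity by LDH release measuring loss of membrane integrity.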 Type of experiment: functional. Conditions: Homo sapiens.
Experiment [19] deals with Dual specificity protein phosphatase 3 (Homo sapiens, UniProt P51452). Put plainly: VHR phosphatase inhibition, dose response, selectivity assay for STEP inhibitor project, biochemical (AID 602374). Format: functional. The note with it: read-out: IC50_Mean.
Chain of Dual specificity protein phosphatase 3 (P51452 whole entry): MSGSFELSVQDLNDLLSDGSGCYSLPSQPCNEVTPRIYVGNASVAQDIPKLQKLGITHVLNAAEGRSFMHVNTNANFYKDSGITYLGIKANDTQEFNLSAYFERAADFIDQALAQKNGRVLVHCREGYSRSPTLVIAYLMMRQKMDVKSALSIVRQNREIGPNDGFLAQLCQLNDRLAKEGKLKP
Experiment [20] concerns the target Tyrosine-protein phosphatase non-receptor type 5 (Homo sapiens, UniProt P54829). Put plainly: PTPN5 enzyme inhibition – biochemical, fluorescence intensity, uHTS hits, confirmation (AID 602372). Format: functional. The note with it: read-out: IC50_Mean.
Experiment [21] addresses Tyrosine-protein phosphatase non-receptor type 11 (Homo sapiens, UniProt Q06124). The experiment can be described thus: PTPN11 enzyme inhibitors – biochemical, selectivity assay for STEP inhibitor project, dose response (AID 602367). Conditions: read-out: IC50_Mean. Format: functional.
Experiment [22] addresses Melanin-concentrating hormone receptor 1 (Homo sapiens, UniProt Q99705). The experiment can be described thus: Late-stage fluorescence-based counterscreen for antagonists of the G-protein coupled receptor 7 (GPR7): cell-based dose response assay to identify antagonists of the melanin-concentrating hormone receptor 1 (MCHR1) Set 5. Type of experiment: functional.
Experiment [23] concerns the target T5, Neuropeptides B/W receptor type 1 (Homo sapiens, UniProt P48145).
T5 sequence (P48145 whole entry): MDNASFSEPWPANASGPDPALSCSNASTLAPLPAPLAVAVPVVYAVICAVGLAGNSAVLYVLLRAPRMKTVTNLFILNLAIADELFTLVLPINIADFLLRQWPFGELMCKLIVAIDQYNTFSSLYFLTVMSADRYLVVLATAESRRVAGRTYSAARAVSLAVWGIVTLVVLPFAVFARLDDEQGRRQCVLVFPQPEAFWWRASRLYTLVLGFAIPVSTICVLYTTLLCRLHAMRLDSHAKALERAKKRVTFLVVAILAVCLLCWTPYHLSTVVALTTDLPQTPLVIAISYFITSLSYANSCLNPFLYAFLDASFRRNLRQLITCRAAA
The experiment can be described thus: human NPBW1 receptor blockade, IC50 – cell-based, fluorescence, dose response, set 5, late-stage follow-up (AID 588566). Format: functional.

SMILES strings stand for the structures. Activity calls are given as the source filed them. A value given as a limit tells only on which side of the number the result lay.

T3 sequence (P10145 whole entry): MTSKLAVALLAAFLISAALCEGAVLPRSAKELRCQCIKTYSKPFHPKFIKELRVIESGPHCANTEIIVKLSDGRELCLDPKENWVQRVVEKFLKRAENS
Chain of Melanin-concentrating hormone receptor 1 (Q99705 whole entry): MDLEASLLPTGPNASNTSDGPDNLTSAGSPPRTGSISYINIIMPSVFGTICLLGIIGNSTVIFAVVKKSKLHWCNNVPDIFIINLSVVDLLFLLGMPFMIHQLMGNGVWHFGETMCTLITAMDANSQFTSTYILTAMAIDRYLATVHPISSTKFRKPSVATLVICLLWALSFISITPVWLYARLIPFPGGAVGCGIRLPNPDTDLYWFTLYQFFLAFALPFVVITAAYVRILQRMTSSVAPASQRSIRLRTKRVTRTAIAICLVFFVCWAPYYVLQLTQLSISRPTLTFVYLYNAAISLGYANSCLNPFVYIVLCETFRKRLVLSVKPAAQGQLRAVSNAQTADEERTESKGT
Chain of Tyrosine-protein phosphatase non-receptor type 11 (Q06124 whole entry): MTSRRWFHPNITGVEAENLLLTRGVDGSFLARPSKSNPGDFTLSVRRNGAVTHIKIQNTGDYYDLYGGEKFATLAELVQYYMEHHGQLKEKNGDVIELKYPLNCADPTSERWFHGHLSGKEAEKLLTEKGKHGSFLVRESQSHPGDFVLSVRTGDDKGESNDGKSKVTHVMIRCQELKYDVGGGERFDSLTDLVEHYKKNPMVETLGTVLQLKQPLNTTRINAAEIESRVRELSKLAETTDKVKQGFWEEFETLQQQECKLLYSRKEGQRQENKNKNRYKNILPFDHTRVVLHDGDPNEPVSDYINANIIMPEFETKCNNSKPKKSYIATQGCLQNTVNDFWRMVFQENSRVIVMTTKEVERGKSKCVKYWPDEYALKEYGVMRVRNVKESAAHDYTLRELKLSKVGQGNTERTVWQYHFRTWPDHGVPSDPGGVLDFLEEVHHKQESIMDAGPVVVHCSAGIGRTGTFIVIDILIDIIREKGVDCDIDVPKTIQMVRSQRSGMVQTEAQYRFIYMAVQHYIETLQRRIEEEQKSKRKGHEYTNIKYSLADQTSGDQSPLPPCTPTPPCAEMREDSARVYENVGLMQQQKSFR
Chain of Leukocyte tyrosine kinase receptor (P29376 whole entry): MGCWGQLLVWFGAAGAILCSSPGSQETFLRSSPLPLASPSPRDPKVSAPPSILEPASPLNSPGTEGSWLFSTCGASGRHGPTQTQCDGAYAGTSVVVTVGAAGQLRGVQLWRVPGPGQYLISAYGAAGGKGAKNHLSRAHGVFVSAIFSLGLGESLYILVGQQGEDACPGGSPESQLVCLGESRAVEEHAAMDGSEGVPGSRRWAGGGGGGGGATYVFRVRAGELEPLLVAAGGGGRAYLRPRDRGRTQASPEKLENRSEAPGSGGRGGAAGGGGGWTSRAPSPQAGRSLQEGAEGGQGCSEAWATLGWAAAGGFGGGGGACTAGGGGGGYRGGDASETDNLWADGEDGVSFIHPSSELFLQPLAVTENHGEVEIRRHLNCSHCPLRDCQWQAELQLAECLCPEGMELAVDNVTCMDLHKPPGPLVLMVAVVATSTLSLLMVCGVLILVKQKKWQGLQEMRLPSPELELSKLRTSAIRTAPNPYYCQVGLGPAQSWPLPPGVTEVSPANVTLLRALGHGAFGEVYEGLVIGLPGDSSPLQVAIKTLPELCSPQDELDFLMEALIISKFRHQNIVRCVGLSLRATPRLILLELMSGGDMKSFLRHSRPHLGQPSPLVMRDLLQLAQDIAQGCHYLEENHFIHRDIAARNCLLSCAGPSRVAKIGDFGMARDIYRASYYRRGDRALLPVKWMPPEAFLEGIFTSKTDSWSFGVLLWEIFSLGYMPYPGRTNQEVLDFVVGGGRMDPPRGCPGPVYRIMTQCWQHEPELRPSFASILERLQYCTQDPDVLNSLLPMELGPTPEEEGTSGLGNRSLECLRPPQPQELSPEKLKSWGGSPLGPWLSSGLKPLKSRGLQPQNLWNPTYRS
Chain of Tyrosine-protein phosphatase non-receptor type 5 (P54829 whole entry): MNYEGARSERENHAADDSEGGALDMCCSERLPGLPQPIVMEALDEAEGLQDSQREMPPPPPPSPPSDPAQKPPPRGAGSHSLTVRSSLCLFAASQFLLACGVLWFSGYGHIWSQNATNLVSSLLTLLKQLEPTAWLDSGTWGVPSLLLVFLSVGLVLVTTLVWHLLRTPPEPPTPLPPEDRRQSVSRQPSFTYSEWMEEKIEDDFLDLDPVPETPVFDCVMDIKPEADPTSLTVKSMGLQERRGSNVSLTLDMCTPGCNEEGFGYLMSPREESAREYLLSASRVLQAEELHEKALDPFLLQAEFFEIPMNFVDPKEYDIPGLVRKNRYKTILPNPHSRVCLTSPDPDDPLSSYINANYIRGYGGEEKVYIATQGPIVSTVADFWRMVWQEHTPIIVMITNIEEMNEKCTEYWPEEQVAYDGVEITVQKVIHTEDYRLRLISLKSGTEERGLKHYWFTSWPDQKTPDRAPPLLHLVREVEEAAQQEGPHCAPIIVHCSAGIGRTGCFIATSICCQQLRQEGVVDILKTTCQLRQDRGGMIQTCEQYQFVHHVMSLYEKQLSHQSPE

`O=C(c1nnsc1S(=O)(=O)c1ccc(Cl)cc1)N1CCOCC1`: the AC50 (usually the concentration giving half of the maximal activity seen) in experiment [1] was 9.51 µM (active); in [2], 7.74 µM (active); in experiment [3] it was 15.3 µM (active); in [4], 13.9 µM (active); in experiment [5], 31.7 µM (active); in experiment [6], 5.75 µM (active). The AC50 in experiment [7] is 15.3 µM (active); in [10], 4.76 µM (active); on Paired box protein Pax-8 it was 6.05 µM (active); in [11], 12.2 µM (active). Besides, the EC50 – broadly, the concentration that produces a half-maximal response – in experiment [8] is recorded as > 195 µM (not active). Besides, the IC50 at Interleukin-8 [9] was 1.19 µM (active); on Interleukin-8 [12], 1.25 µM (active).
For the compound `O=C(O)C1CN(Cc2ccc(OCc3ccc(Cl)cc3Cl)cc2)C1`, the Ki (as a rule, a dissociation constant, usually derived from enzyme kinetics or from competition with a known ligand) in [13] was 1 µM (active); in experiment [14] it was 2.51 µM (active).
Turning to `Cc1cc(Oc2ccc(C#N)cc2)nc(N2CCOCC2)n1`, the EC50 with HEK293 [15], on Insulin-degrading enzyme [16] and at Insulin-degrading enzyme [17] was > 54.7 µM (inactive) in each case. Besides, the IC50 in the experiment with HEK293 [18] was > 89.2 µM (inactive).
In the case of `CCN1CCN(C(=S)c2ccc(OCC(=O)NCc3ccccc3)cc2)CC1`, the IC50 in experiment [19] was 1.92 µM (active); in experiment [20], 45.3 µM (inactive); in experiment [21] it was 3.35 µM (active).
Consider `CCOc1ccc(Oc2c(N3CCCCC3)c(Br)nn(Cc3cccc4ccccc34)c2=O)cc1`, for which the IC50 in experiment [22] and in experiment [23] was > 20 µM (inactive) in each case.
